Experiments:
[1] = molecular target: hERG (Homo sapiens, UniProt Q12809); assay: Inhibition of hERG channel by rubidium efflux assay at 5 ug/ml; assay type: toxicity
[2] = molecular target: Voltage-gated inwardly rectifying potassium channel KCNH2 (Homo sapiens, UniProt Q12809); assay: Inhibition of hERG channel by voltage clamp assay; assay type: toxicity
[3] = molecular target: Melanin-concentrating hormone receptor 1 (Homo sapiens, UniProt Q99705); assay: Binding affinity to MCHR1
[4] = AUC (0-6h) in rat at 10 mg/kg, po; assay type: ADME, organism-based; design: time < 6 hr, dose 10 mg/kg, route oral; conditions: plasma

Chain of Melanin-concentrating hormone receptor 1 (Q99705 whole entry): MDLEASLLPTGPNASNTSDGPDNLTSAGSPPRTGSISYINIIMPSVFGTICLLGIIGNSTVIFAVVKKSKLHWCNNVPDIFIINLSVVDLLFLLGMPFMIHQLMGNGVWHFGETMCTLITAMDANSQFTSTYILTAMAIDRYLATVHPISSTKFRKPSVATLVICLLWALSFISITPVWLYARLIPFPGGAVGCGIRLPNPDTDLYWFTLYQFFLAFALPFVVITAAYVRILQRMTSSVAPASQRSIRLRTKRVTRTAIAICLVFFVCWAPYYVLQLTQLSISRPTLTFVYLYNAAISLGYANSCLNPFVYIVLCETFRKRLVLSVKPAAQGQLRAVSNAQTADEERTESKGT
Chain of hERG (Q12809 whole entry): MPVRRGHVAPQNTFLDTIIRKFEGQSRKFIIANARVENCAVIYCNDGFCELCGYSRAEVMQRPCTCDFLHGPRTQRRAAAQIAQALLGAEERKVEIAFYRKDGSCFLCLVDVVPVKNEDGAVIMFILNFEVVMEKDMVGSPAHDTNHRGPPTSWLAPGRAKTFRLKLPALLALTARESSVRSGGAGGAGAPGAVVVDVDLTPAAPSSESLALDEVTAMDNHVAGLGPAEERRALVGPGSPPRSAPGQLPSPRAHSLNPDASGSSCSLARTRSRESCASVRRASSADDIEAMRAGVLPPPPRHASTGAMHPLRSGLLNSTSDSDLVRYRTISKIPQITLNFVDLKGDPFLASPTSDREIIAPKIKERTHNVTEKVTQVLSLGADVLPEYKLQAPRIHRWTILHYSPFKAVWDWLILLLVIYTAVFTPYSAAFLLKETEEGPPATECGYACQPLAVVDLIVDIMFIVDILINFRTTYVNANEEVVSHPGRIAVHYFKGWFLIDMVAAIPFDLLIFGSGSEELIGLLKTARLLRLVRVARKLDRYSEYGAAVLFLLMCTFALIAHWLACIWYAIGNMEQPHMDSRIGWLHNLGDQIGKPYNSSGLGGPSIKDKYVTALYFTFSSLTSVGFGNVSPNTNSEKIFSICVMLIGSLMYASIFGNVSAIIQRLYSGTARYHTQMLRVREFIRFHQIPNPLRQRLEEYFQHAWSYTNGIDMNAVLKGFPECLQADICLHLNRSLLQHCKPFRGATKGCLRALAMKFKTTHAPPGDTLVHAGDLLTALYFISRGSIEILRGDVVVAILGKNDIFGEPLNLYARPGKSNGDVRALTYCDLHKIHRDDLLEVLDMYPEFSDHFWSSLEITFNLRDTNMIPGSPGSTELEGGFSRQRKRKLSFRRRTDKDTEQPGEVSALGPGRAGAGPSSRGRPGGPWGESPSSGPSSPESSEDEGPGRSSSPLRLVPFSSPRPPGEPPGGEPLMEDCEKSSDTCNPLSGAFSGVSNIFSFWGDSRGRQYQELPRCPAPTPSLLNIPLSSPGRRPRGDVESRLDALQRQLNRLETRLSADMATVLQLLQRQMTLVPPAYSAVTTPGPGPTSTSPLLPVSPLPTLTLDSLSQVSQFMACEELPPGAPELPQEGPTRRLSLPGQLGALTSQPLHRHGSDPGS
Chain of Voltage-gated inwardly rectifying potassium channel KCNH2 (Q12809 whole entry): as above

| Compound | inhibition at 5 ug/ml [1] [%] | IC50 [2] [nM] | Ki [3] [nM] | AUC(0-t) at 6 h [4] [ng·h/mL] |
| --- | --- | --- | --- | --- |
| CN1CCN(CCCN(C(=O)Nc2ccc(F)c(C(F)(F)F)c2)[C@@H]2CC[C@]3(c4ccc(C#N)cc4)C[C@H]23)CC1 | 86 | 52 | – | – |
| CN1CCN(CCCN(C(=O)Nc2ccc(F)c(C(F)(F)F)c2)[C@@H]2CC[C@]3(c4ccc5c(N)noc5c4)C[C@H]23)CC1 | 26 | 690 | – | – |
| COc1cccc([C@]23CC[C@@H](N(CCCN4CCN(C)CC4)C(=O)Nc4ccc(F)c(Cl)c4)[C@H]2C3)c1 | 70 | – | 2.7 | – |
| CN1CCN(CCCN(C(=O)Nc2ccc(F)c(C(F)(F)F)c2)[C@@H]2CC[C@]3(c4ccc(=O)[nH]c4)C[C@H]23)CC1 | 9 | – | – | – |
| CC(=O)Nc1ccc([C@]23CC[C@@H](N(CCCN4CCN(C)CC4)C(=O)Nc4ccc(F)c(Cl)c4)[C@H]2C3)cc1 | 18 | – | – | – |
| CNC(=O)c1ccc([C@]23CC[C@@H](N(CCCN4CCN(C)CC4)C(=O)Nc4ccc(F)c(C(F)(F)F)c4)[C@H]2C3)cc1 | 25 | – | – | – |
| CN1CCN(CCCN(C(=O)Nc2ccc(F)c(Cl)c2)[C@@H]2CC[C@]3(c4cccc(N5CCCC5=O)c4)C[C@H]23)CC1 | 14 | – | – | – |
| CN1CCN(CCCN(C(=O)Nc2ccc(F)c(Cl)c2)[C@@H]2CC[C@]3(c4cccc(NC(=O)C5CC5)c4)C[C@H]23)CC1 | 46 | – | 6.8 | 634 |
| CN1CCN(CCCN(C(=O)Nc2ccc(F)c(Cl)c2)[C@@H]2CC[C@]3(c4ccc(N)cc4)C[C@H]23)CC1 | 16 | – | 4.4 | – |
| CCC(=O)Nc1cccc([C@]23CC[C@@H](N(CCCN4CCN(C)CC4)C(=O)Nc4ccc(F)c(Cl)c4)[C@H]2C3)c1 | 34 | – | – | – |
| CN1CCN(CCCN(C(=O)Nc2ccc(F)c(C(F)(F)F)c2)[C@@H]2CC[C@]3(c4ccc5c(c4)CC(=O)N5)C[C@H]23)CC1 | 50 | – | 15 | – |
| CC(C)C(=O)Nc1cccc([C@]23CC[C@@H](N(CCCN4CCN(C)CC4)C(=O)Nc4ccc(F)c(Cl)c4)[C@H]2C3)c1 | 37 | – | 15.1 | 339 |
| CN1CCN(CCCN(C(=O)Nc2ccc(F)c(Cl)c2)[C@@H]2CC[C@]3(c4ccc(NC(=O)OC(C)(C)C)cc4)C[C@H]23)CC1 | 87 | – | – | – |
| CCNC(=O)Nc1cccc([C@]23CC[C@@H](N(CCCN4CCN(C)CC4)C(=O)Nc4ccc(F)c(Cl)c4)[C@H]2C3)c1 | 17 | – | 28 | 127 |
| CN1CCN(CCCN(C(=O)Nc2ccc(F)c(Cl)c2)[C@@H]2CC[C@]3(c4cccc(N5CCC5)c4)C[C@H]23)CC1 | 29 | – | – | – |
| COc1ccc([C@]23CC[C@@H](N(CCCN4CCN(C)CC4)C(=O)Nc4ccc(F)c(C(F)(F)F)c4)[C@H]2C3)cn1 | 36 | – | – | – |
| CN1CCN(CCCN(C(=O)Nc2ccc(F)c(C(F)(F)F)c2)[C@@H]2CC[C@]3(c4ccc5onc(N)c5c4)C[C@H]23)CC1 | 46 | – | 46 | – |
| CN1CCN(CCCN(C(=O)Nc2ccc(F)c(Cl)c2)[C@@H]2CC[C@]3(c4ccc(F)cc4)C[C@H]23)CC1 | 87 | – | – | – |
| CN1CCN(CCCN(C(=O)Nc2ccc(F)c(C(F)(F)F)c2)[C@@H]2CC[C@]3(c4ccc(S(C)(=O)=O)cc4)C[C@H]23)CC1 | 46 | – | – | – |
| CN1CCN(CCCN(C(=O)Nc2ccc(F)c(Cl)c2)[C@@H]2CC[C@]3(c4ccccc4)C[C@H]23)CC1 | 58 | – | – | – |
| CN1CCN(CCCN(C(=O)Nc2ccc(F)c(Cl)c2)[C@@H]2CC[C@]3(c4cccc(N)c4)C[C@H]23)CC1 | 25 | – | 9.6 | – |
| CC(=O)Nc1cccc([C@]23CC[C@@H](N(CCCN4CCN(C)CC4)C(=O)Nc4ccc(F)c(Cl)c4)[C@H]2C3)c1 | 19 | – | – | – |
| CN1CCN(CCCN(C(=O)Nc2ccc(F)c(C(F)(F)F)c2)[C@@H]2CC[C@]3(c4nccs4)C[C@H]23)CC1 | 27 | – | – | – |
| CN1CCN(CCCN(C(=O)Nc2ccc(F)c(C(F)(F)F)c2)[C@@H]2CC[C@]3(c4ccsc4)C[C@H]23)CC1 | 75 | – | – | – |
| CN1CCN(CCCN(C(=O)Nc2ccc(F)c(Cl)c2)[C@@H]2CC[C@]3(c4cccnc4)C[C@H]23)CC1 | 97 | – | – | – |
| CN1CCN(CCCN(C(=O)Nc2ccc(F)c(Cl)c2)[C@@H]2CC[C@]3(c4cccc(NC(=O)C(C)(C)C)c4)C[C@H]23)CC1 | 27 | – | – | – |
| COC(=O)c1ccc([C@]23CC[C@@H](N(CCCN4CCN(C)CC4)C(=O)Nc4ccc(F)c(C(F)(F)F)c4)[C@H]2C3)cc1 (single isomer, unassigned) | 63 | – | – | – |

Source: ChEMBL document CHEMBL1146860, “Bicyclo[3.1.0]hexyl urea melanin concentrating hormone (MCH) receptor-1 antagonists: impacting hERG liability via aryl modifications” (Bioorg Med Chem Lett, 2006)
